Source: US20070154445A1, “Compositions, methods and kits for preventing the decomposition of urine” (priority 2006, published 2007)
Where two headings read alike, the source gives them in different places.

[1] = 4 grams in total added to 600 milliliters of urine
[2] = 5 grams in total added to 600 milliliters of urine

Experimental: Accordingly, various compositions were tested to determine their effect on the pH when added to 600 milliliters of urine.

SMILES | Resulting pH [1] | Resulting pH [2]
O=C(O)CC(O)(CC(=O)O)C(=O)O [Pure citric acid in granular form, citric acid] | 3.8 | 3.7
O=C(O)CCC(=O)O [Pure succinic acid in granular form, succinic acid] | – | 4.2
O=C(O)C(O)C(O)C(=O)O (centres unmarked) [Pure tartaric acid in granular form, tartaric acid] | 3.4 | 3.3
